The record followed here is patent US20250109343A1, “CORROSION INHIBITOR” (INNOSPEC LIMITED, priority 2022, published 2025).

Test [1] can be described thus: Linear Polarisation Resistance (LPR) Test, Example 30, synthetic brine composition 1 or 2.
Test [2] can be described thus: LPR test of Example 31, variety of brines and brine/depolarised kerosene fluids. On the procedure: The LPR test was carried out using the corrosion inhibitor of Example 1. The LPR test was carried out using the same conditions as the LPR test of Example 30 except for the composition of the corrosive fluid, the temperature, and the dose of the corrosion inhibitor.

Where [3] appears, read: brine composition 1, dose 40 ppm of product, one addition, time 19.9-20.1 hr, 60° C., constant CO2 sparge.
Setting [4] is: brine composition 2, dose 40* ppm, four additions each of 10 ppm, time 25.3-28.8 hr, 60° C., constant CO2 sparge.
The mark [5] stands for this setting: Test 1: brine composition 1 (Table 6), 60 ° C., dose 50 ppm, 4 hours.
[6] abbreviates: Test 3: brine composition 3 and depolarised kerosene 90:10 volume ratio, 82 ° C., dose 60 ppm, 5 hours.
[7] abbreviates: Test 4: brine composition 4 and depolarised kerosene 90:10 volume ratio, 82 ° C., dose 60 ppm, 5 hours.
Where [8] appears, read: Test 5: brine composition 5 and depolarised kerosene 90:10 volume ratio, 82 ° C., dose 60 ppm, 5 hours.
The mark [9] stands for this setting: Test 6: brine composition 6 and depolarised kerosene 90:10 volume ratio, 82 ° C., dose 60 ppm, 5 hours.

In test [1] (setting [3]), “disodium 2-octen-1-ylsuccinate [Example 5]” yielded a Corrosion protection of 89% and a Corrosion rate of 0.46 mmpy.

Regarding “potassium PEG200 2-octen-1-yI succinate [Example 21]”, in test [1] (setting [4]), the Corrosion protection was 59% and the Corrosion rate was 2.24 mmpy.

As for “sodium 1,6-hexanediol dodecenyl succinate [Example 15]”, in test [1], the Corrosion protection stood at 41% and the Corrosion rate was 1.68 mmpy.

In test [1], “sodium 1-hexanol dodecenyl succinate [Example 10]” registered a Corrosion protection of 92% and a Corrosion rate of 0.29 mmpy.

Take “sodium 2-ethyl-1,3-hexanediol dodecenyl succinate [Example 9]”: in test [1], the Corrosion protection stood at 51% and the Corrosion rate came to 2.02 mmpy.

For the substance “sodium 3-dimethylaminopropylamine dodecenyl succinamide [Example 13]”, in test [1], the Corrosion protection turned out to be 46% and the Corrosion rate was 1.73 mmpy.

In the case of “sodium PEG200 2-octen-1-ylsuccinate [Example 1]”, the Corrosion protection was 96% in test [2] (setting [5]); 96% in test [2] (Test 2: brine composition 2 (Table 6), 60 ° C., dose 50 ppm, 4 hours); 99% in test [2] (setting [6]); 98% in test [2] (setting [7]); 96% in test [2] (setting [8]); 95% in test [2] (setting [9]). The Corrosion protection in test [1] worked out at 99%. In addition, the Corrosion rate is recorded as 0.1320 mmpy in test [2] (setting [5]); 0.0358 mmpy in test [2] (setting [6]); 0.0833 mmpy in test [2] (setting [7]); 0.1387 mmpy in test [2] (setting [8]); 0.1646 mmpy in test [2] (setting [9]); 0.03 mmpy in test [1]. In addition, in test [2] (variety of brines and brine/hydrocarbon emulsions), the “Corrosion inhibition, result in words” value is “effective corrosion inhibitor”.

In test [1], “sodium benzyl alcohol dodecenyl succinate [Example 8]” registered a Corrosion protection of 96% and a Corrosion rate of 0.14 mmpy.

In the case of “sodium diethanolamine dodecenylsuccinamide [Example 4]”, in test [1], the Corrosion protection is listed as 99% and the Corrosion rate is 0.06 mmpy.

sodium dodecanol phthalate [Example 26]: the Corrosion protection in test [1] stood at 99%.

As for “sodium furfuryl alcohol dodecenyl succinic anhydride [Example 28]”, in test [1], the Corrosion protection is listed as 99% and the Corrosion rate is 0.04 mmpy.

As for “triethanolamine PEG200 2-octen-1-yl succinate [Example 22]”, in test [1], the Corrosion protection came out at 68% and the Corrosion rate is recorded as 2.44 mmpy.
